The term solubility denotes the concentration that dissolves in the medium under given conditions. Read a low solubility as little dissolved substance.

This is an account of results in patent US10793554B2, “Solid forms of 4-(2-fluoro-4-(1-methyl-1H-benzo[d]imidazol-5-yl)benzoyl)piperazin-1-yl)(1-hydroxycyclopropyl)methanone” (FORMA Therapeutics, Inc., priority 2018, dated 2020).

≈ marks a conversion by molar mass, not a printed value. Entries after “also recorded” stand apart in the source; their conditions may differ.

Common to all, as to type: physicochemical
Data set [1] is described as follows: Chemical stability study at elevated temperature and controlled relative humidity. As to the method: A study was conducted on a sample of Compound 1 (Form B) where samples were exposed (open) to a range of elevated temperatures (50-80° C.) and controlled relative humidity (RH) (0-80% RH).
Data set [2] in a line: Slurry competition of Form B and Form C at different water activity (XRPD). As to conditions: for Results (solid form after slurry competition): 4 days. As to the method: (§1) High resolution XRPD experiments were performed with Panalytical X′Pert^3 Powder XRPD on a Si zero-background holder. The 2θposition was calibrated against Panalytical 640 Si powder standard.
Form C was dissolved in three solvent mixtures (see Table 7) to get saturated solutions. Similar mass of Form B and Form C were added into the saturated solutions. The suspensions obtained were stirred at room temperature for 4 days and the solids collected were analyzed with XRPD.

Data set [3] can be described thus: Kinetic solubility of Form B in formulation (0.5% MC, 0.5% Tween 80 in water), HPLC. As to conditions: 0.5% MC and 0.5% Tween 80 in water. As to the method:
High Pressure Liquid Chromatography (HPLC) data was obtained according to Table 5, below:
(§2) Kinetic solubility and phase stability of Form B was tested in a formulation (0.5% methyl cellulose (MC) and 0.5% Tween 80 in water). The sample was monitored by XRPD at 1, 2, 4 and 24 hours for phase stability. […] Kinetic solubility of Form B was measured in the same formulation at time points of 1, 2, 4 and 24 hour (Table 8). The supernatant was obtained by filtration and the concentration was measured by HPLC.

Data set [4] in a line: Phase stability of Form B in formulation (XRPD). As to conditions: after 24 h; 0.5% MC and 0.5% Tween 80 in water. As to the method:
as §1, §2

Data set [5] can be described thus: Dynamic Vapor Sorption (DVS) of Form B. The text has this: DVS was obtained using a Surface Measurement System (SMS) DVS Intrinsic. The details of the method are providing in Table 4, below:
The sample was non-hygroscopic.

A short description of data set [6]: Slurry stability evaluation of Mixture A (XRPD of collected solids). As to conditions: 4 days. As to the method:
as §1
The solids collected were analyzed by XRPD to confirm the form change.

`Cn1cnc2cc(-c3ccc(C(=O)N4CCN(C(=O)C5(O)CC5)CC4)c(F)c3)ccc21` [Compound 1, (4-(2-fluoro-4-(1-methyl-1H-benzo[d]imidazol-5-yl)benzoyl)piperazin-1-yl)(1-hydroxycyclopropyl)methanone]: the estimated shelf life result in data set [1] (25° C./60% RH, Form B sample) is given as “greater than 5 years”. For the same compound, the chemical stability entry in data set [1] (Form B sample exposed open to 50-80° C., 0-80% RH) was “good chemical stability”.
`Cn1cnc2cc(-c3ccc(C(=O)N4CCN(C(=O)C5(O)CC5)CC4)c(F)c3)ccc21` [Form B and Form C, (4-(2-fluoro-4-(1-methyl-1H-benzo[d]imidazol-5-yl)benzoyl)piperazin-1-yl)(1-hydroxycyclopropyl)methanone]: the “Results (solid form after slurry competition)” value in data set [2] (H2O/MeOH (85:915 v/v), Aw 0.25, RT) is on record as “Form B”; in data set [2] (H2O/MeOH (225:775 v/v), Aw 0.5, RT), “Form B”; in data set [2] (H2O/MeOH (494:506 v/v), Aw 0.75, 50° C.) it was “Form B”. In addition, in data set [2] (H2O/MeOH mixtures, Aw 0.25-0.75, 4 days), the “form conversion in slurry competition (summary)” value is “converted completely to Form B”.
For `Cn1cnc2cc(-c3ccc(C(=O)N4CCN(C(=O)C5(O)CC5)CC4)c(F)c3)ccc21` [Form B, (4-(2-fluoro-4-(1-methyl-1H-benzo[d]imidazol-5-yl)benzoyl)piperazin-1-yl)(1-hydroxycyclopropyl)methanone], in data set [3] (0.5% methyl cellulose and 0.5% Tween 80 in water, aqueous with cosolvent or surfactant or cyclodextrin, thermodynamic from solid, 1 h, RT), the solubility at 1 h worked out at 62 µg/mL (≈ 147 µM). Moreover, the solubility at 2 h in data set [3] (0.5% methyl cellulose and 0.5% Tween 80 in water, aqueous with cosolvent or surfactant or cyclodextrin, thermodynamic from solid, 2 h, RT) turned out to be 62 µg/mL (≈ 147 µM). Moreover, in data set [3] (0.5% methyl cellulose and 0.5% Tween 80 in water, aqueous with cosolvent or surfactant or cyclodextrin, thermodynamic from solid, 4 h, RT), the solubility at 4 h came out at 63 µg/mL (≈ 149 µM). Moreover, the concentration in solution in data set [3] (0.5% methyl cellulose and 0.5% Tween 80 in water, aqueous with cosolvent or surfactant or cyclodextrin, thermodynamic from solid, 24 h, RT) (solubility at 24 h) was 60 µg/mL (≈ 142 µM). Moreover, the “Purity of solubility sample” value in data set [3] (1 h) came out at 97.8 % area at 240 nm; in data set [3] (2 h), 97.8 % area at 240 nm; in data set [3] (4 h), 97.7 % area at 240 nm; in data set [3] (24 h) it was 97.7 % area at 240 nm. Further, in data set [3] (during 24 hours at RT), the “course of solubility over time” value was “remained stable”. Also, the “degradation in the solubility sample / vehicle” value in data set [3] (up to 24 h) is given as “No significant degradation; also recorded: no form change or significant degradation”. The “phase transformation / form change in formulation (XRPD)” value in data set [4] was “no phase transformation; also recorded: no form change”. The “form change before and after DVS (XRPD)” value in data set [5] is recorded as “no form change”. Besides, the “hygroscopicity (DVS)” value in data set [5] (25° C.) is given as “non-hygroscopic”. Further, the “mass change (DVS)” value in data set [5] (from 0% RH to 95% RH at 25° C.) is recorded as 0.46 wt %.
As to `Cn1cnc2cc(-c3ccc(C(=O)N4CCN(C(=O)C5(O)CC5)CC4)c(F)c3)ccc21` [Mixture A, (4-(2-fluoro-4-(1-methyl-1H-benzo[d]imidazol-5-yl)benzoyl)piperazin-1-yl)(1-hydroxycyclopropyl)methanone], the “Results (solid form after slurry)” value is reported as “Form B” in data set [6] (ACN, 50° C.); “Form B” in data set [6] (ACN, RT); “Form B” in data set [6] (EtOAc, 50° C.); “Form B” in data set [6] (EtOAc, RT). Moreover, the “form conversion of solids from the slurries (summary)” value in data set [6] (EtOAc or ACN, RT or 50° C.) is “converted to Form B completely”.
